{
  "source": "paper PMC9421654",
  "about": "“Discovery of Substituted Di(pyridin-2-yl)-1,2,4-thiadiazol-5-amines as Novel Macrofilaricidal Compounds for the Treatment of Human Filarial Infections” (Journal of Medicinal Chemistry, 2022)",
  "assay": "in vivo",
  "conditions": "dog",
  "source_text": "IV formulation vehicle for rat: 15% DMA / 50%PEG / 35% D5W; for dog: 5% DMA /\nPO formulation vehicle for mouse and rat: a suspension in 0.5% CMC / 0.25% Tween80, as a\nsuspension; for dog: a suspension in 0.5% methyl cellulose / 0.25% Tween80",
  "data": [
    {"smiles": "CC(C)Oc1ccc(-c2nsc(Nc3ncccc3N(C)C)n2)nc1", "note": "[Compound 31, N^2-(3-(5-Isopropoxypyridin-2-yl)-1,2,4-thiadiazol-5-yl)-N3,N3-dimethylpyridine-2,3-diamine]", "values": [
      {"measurement": "Vd", "setting": "iv, 2 mg/kg", "result": "3.08 ± 0.03", "unit": "L/kg"},
      {"measurement": "clearance", "setting": "iv, 2 mg/kg", "result": "1.13 ± 0.162", "unit": "L/h/kg"},
      {"measurement": "AUC(0-inf)", "setting": "po, 3 mg/kg", "result": "4.02 ± 1.03", "unit": "µM·h"},
      {"measurement": "Cmax", "setting": "po, 3 mg/kg", "result": "1.41 ± 0.53", "unit": "µM"},
      {"measurement": "Tmax", "setting": "po, 3 mg/kg", "result": "1.2 ± 0.8", "unit": "h"},
      {"measurement": "bioavailability", "setting": "po, 3 mg/kg", "result": "55 ± 21", "unit": "%"}
    ]}
  ]
}
